The record followed here is patent publication US8030321B2, “Benzofuro- and benzothienopyrimidine modulators of the histamine H4 receptor” (Janssen Pharmaceutica, NV, priority 2006, dated 2011).

For orientation: Ki means the dissociation constant of the complex between target and ligand, obtained from inhibition or displacement.

Structures can show the parent of a compound that is named as a salt.

The target of the test is T1, human histamine H4 receptor (Homo sapiens, UniProt Q9H3N8).
T1 construct: expressed in transfected cells; host or cells: SK-N-MC cells or COS7 cells, transiently transfected; cell membranes used
T1 sequence (Q9H3N8 whole entry): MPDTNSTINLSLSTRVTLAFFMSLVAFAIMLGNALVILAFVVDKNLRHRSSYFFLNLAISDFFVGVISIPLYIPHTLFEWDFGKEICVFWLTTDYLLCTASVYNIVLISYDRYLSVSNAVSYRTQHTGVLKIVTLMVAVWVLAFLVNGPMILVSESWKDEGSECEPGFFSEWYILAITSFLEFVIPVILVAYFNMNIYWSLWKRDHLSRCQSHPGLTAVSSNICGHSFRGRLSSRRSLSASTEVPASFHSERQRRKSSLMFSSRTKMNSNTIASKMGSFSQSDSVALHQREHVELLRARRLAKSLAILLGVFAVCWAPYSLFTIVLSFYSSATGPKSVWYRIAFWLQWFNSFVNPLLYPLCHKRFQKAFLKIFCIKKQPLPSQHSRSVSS
The test can be described thus: Binding Assay on Recombinant Human Histamine H4 Receptor. Conditions: competition binding with 3H-histamine (5 nM), membranes of SK-N-MC or COS7 cells expressing human H4 receptor; Cheng-Prusoff, KD 5 nM; average of results obtained; read-out: Ki. The procedure, abridged: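 Membranes from SK-N-MC or COS7 cells transiently transfected with human H4 receptor were incubated with ³H-histamine (5-70 nM); nonspecific binding defined with 10,000 nM histamine. Bound radioactivity collected by GF/C filtration and scintillation counting; test compounds assessed by displacement of ³H-ligand binding across concentrations.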
With `COc1ccc2oc3c(N4C[C@@H]5C[C@H]4CN5)nc(N)nc3c2c1` [Example 113, (S,S)-4-(2,5-Diaza-bicyclo[2.2.1]hept-2-yl)-8-methoxy-benzo[4,5]furo[3,2-2]pyrimidin-2-ylamine trifluoroacetic acid salt], the Ki is 420 nM. `CN1CCN(c2nc(NCCO)nc3c2oc2ccc(Cl)cc23)CC1` [Example 115, 2-[8-Chloro-4-(4-methyl-piperazin-1-yl)-benzo[4,5]furo[3,2-d]pyrimidin-2-ylamino]-ethanol]: the Ki was 4.3 nM.

As for `CN1CCN(c2nc(NCCO)nc3c2oc2ccccc23)CC1` [Example 116, 2-[4-(4-Methyl-piperazin-1-yl)-benzo[4,5]furo[3,2-d]pyrimidin-2-ylamino]-ethanol], the inhibition constant Ki was 68 nM. The figure for `COc1ccc2oc3c(N4CCN(C)CC4)nc(NCCO)nc3c2c1` [Example 118, 2-[8-Methoxy-4-(4-methyl-piperazin-1-yl)-benzo[4,5]furo[3,2-d]pyrimidin-2-ylamino]-ethanol] is 200 nM. Take `CN1CCN(c2nc(NC3CC3)nc3c2oc2ccc(Cl)cc23)CC1` [Example 119, [8-Chloro-4-(4-methyl-piperazin-1-yl)-benzo[4,5]furo[3,2-d]pyrimidin-2-yl]-cyclopropyl-amine]: the Ki worked out at 350 nM. The result for `CC(C)CNc1nc(N2CCN(C)CC2)c2oc3ccc(Cl)cc3c2n1` [Example 120, [8-Chloro-4-(4-methyl-piperazin-1-yl)-benzo[4,5]furo[3,2-d]pyrimidin-2-yl]-isobutyl-amine] reads 3330 nM; that for `C=CCNc1nc(N2CCN(C)CC2)c2oc3ccc(Cl)cc3c2n1` [Example 121, Allyl-[8-chloro-4-(4-methyl-piperazin-1-yl)-benzo[4,5]furo[3,2-d]pyrimidin-2-yl]-amine], 220 nM; that for `CN1CCN(c2nc(NCCCN)nc3c2oc2ccc(Cl)cc23)CC1` [Example 122, N^1-[8-Chloro-4-(4-methyl-piperazin-1-yl)-benzo[4,5]furo[3,2-d]pyrimidin-2-yl]-propane-1,3-diamine], 300 nM. The figure for `CSCCNc1nc(N2CCN(C)CC2)c2oc3ccc(Cl)cc3c2n1` [Example 123, [8-Chloro-4-(4-methyl-piperazin-1-yl)-benzo[4,5]furo[3,2-d]pyrimidin-2-yl]-(2-methylsulfanyl-ethyl)-amine] is 520 nM.

With `CNc1nc(N2CCN(C)CC2)c2oc3ccc(Cl)cc3c2n1` [Example 124, [8-Chloro-4-(4-methyl-piperazin-1-yl)-benzo[4,5]furo[3,2-d]pyrimidin-2-yl]-methyl-amine], the Ki worked out at 97 nM. With `OCCNc1nc(N2C[C@@H]3C[C@H]2CN3)c2oc3ccc(Cl)cc3c2n1` [Example 125, (S,S)-2-[8-Chloro-4-(2,5-diaza-bicyclo[2.2.1]hept-2-yl)-benzo[4,5]furo[3,2-d]pyrimidin-2-ylamino]-ethanol], the Ki was determined as 580 nM.

For `CNC1CCN(c2nc(NCCO)nc3c2oc2ccc(Cl)cc23)C1` (centres unmarked) [Example 126, 2-[8-Chloro-4-(3-methylamino-pyrrolidin-1-yl)-benzo[4,5]furo[3,2-d]pyrimidin-2-ylamino]-ethanol], the Ki is 210 nM. The result for `CN1CCCN(c2nc(NCCO)nc3c2oc2ccc(Cl)cc23)CC1` [Example 127, 2-[8-Chloro-4-(4-methyl-[1,4]diazepan-1-yl)-benzo[4,5]furo[3,2-d]pyrimidin-2-ylamino]-ethanol] reads 260 nM. The result for `Nc1nc(N2CC(N)C2)c2oc3ccc(Cl)cc3c2n1` [Example 129, 4-(3-Amino-azetidin-1-yl)-8-chloro-benzo[4,5]furo[3,2-d]pyrimidin-2-ylamine trifluoroacetic acid salt] reads 19 nM; that for `C[C@@H]1CN(c2nc(N)nc3c2oc2ccc(Cl)cc23)[C@@H](C)CN1` [Example 130, (2S,5R)-8-Chloro-4-(2,5-dimethyl-piperazin-1-yl)-benzo[4,5]furo[3,2-d]pyrimidin-2-ylamine trifluoroacetic acid salt], 140 nM; that for `C[C@H]1CNCCN1c1nc(N)nc2c1oc1ccc(Cl)cc12` [Example 131, (S)-8-Chloro-4-(2-methyl-piperazin-1-yl)-benzo[4,5]furo[3,2-d]pyrimidin-2-ylamine trifluoroacetic acid salt], 60 nM. The result for `C[C@@H]1CNCCN1c1nc(N)nc2c1oc1ccc(Cl)cc12` [Example 132, (R)-8-Chloro-4-(2-methyl-piperazin-1-yl)-benzo[4,5]furo[3,2-d]pyrimidin-2-ylamine trifluoroacetic acid salt] reads 120 nM. Consider `C[C@H]1CN(c2nc(N)nc3c2oc2ccc(Cl)cc23)CCN1` [Example 133, (S)-8-Chloro-4-(5-methyl-piperazin-1-yl)-benzo[4,5]furo[3,2-d]pyrimidin-2-ylamine trifluoroacetic acid salt], for which the inhibitory constant (Ki) was determined as 5.7 nM.

Consider `C[C@@H]1CN(c2nc(N)nc3c2oc2ccc(Cl)cc23)CCN1` [Example 134, (R)-8-Chloro-4-(5-methyl-piperazin-1-yl)-benzo[4,5]furo[3,2-d]pyrimidin-2-ylamine trifluoroacetic acid salt], for which the inhibitory constant (Ki) is 50 nM. The figure for `CN1CCN(c2nc(N)nc3c2oc2cccc(F)c23)CC1` [Example 135, 9-Fluoro-4-(4-methyl-piperazin-1-yl)-benzo[4,5]furo[3,2-d]pyrimidin-2-ylamine trifluoroacetic acid salt] is 21 nM. The result for `CN[C@@H]1CCN(c2nc(N)nc3c2oc2cccc(F)c23)C1` [Example 136, (R)-9-Fluoro-4-(3-methylamino-pyrrolidin-1-yl)-benzo[4,5]furo[3,2-d]pyrimidin-2-ylamine trifluoroacetic acid salt] reads 10 nM; that for `Nc1nc(N2CCNCC2)c2oc3cccc(F)c3c2n1` [Example 137, 9-Fluoro-4-piperazin-1-yl-benzo[4,5]furo[3,2-d]pyrimidin-2-ylamine trifluoroacetic acid salt], 150 nM.

As to `Nc1nc(N2CC(N)C2)c2oc3cccc(F)c3c2n1` [Example 138, 4-(3-Amino-azetidin-1-yl)-9-fluoro-benzo[4,5]furo[3,2-d]pyrimidin-2-ylamine trifluoroacetic acid salt], the inhibitory constant (Ki) is more than 10000 nM. The figure for `CN1CCN(c2nc(N)nc3c2oc2ccc(C(F)(F)F)cc23)CC1` [Example 139, 4-(4-Methyl-piperazin-1-yl)-8-trifluoromethyl-benzo[4,5]furo[3,2-d]pyrimidin-2-ylamine trifluoroacetic acid salt] is 0.8 nM. The figure for `CN[C@@H]1CCN(c2nc(N)nc3c2oc2ccc(C(F)(F)F)cc23)C1` [Example 140, (R)-4-(3-Methylamino-pyrrolidin-1-yl)-8-trifluoromethyl-benzo[4,5]furo[3,2-d]pyrimidin-2-ylamine trifluoroacetic acid salt] is 1 nM; for `Nc1nc(N2CCC[C@H](N)C2)c2oc3ccc(C(F)(F)F)cc3c2n1` [Example 141, (S)-4-(3-Amino-piperidin-1-yl)-8-trifluoromethyl-benzo[4,5]furo[3,2-d]pyrimidin-2-ylamine trifluoroacetic acid salt] it is 43 nM; for `Nc1nc(N2CCNCC2)c2oc3ccc(C(F)(F)F)cc3c2n1` [Example 142, 4-piperazin-1-yl-8-trifluoromethyl-benzo[4,5]furo[3,2-d]pyrimidin-2-ylamine trifluoroacetic acid salt] it is 13 nM. The figure for `Nc1nc(N2C[C@@H]3C[C@H]2CN3)c2oc3ccc(C(F)(F)F)cc3c2n1` [Example 143, (S,S)-4-(2,5-Diaza-bicyclo[2.2.1]hept-2-yl)-8-trifluoromethyl-benzo[4,5]furo[3,2-d]pyrimidin-2-ylamine citrate salt] is 270 nM.

For `Nc1nc(N2CC(N)C2)c2oc3ccc(C(F)(F)F)cc3c2n1` [Example 144, 4-(3-Amino-azetidin-1-yl)-8-trifluoromethyl-benzo[4,5]furo[3,2-d]pyrimidin-2-ylamine], the inhibition constant Ki was more than 10000 nM. The result for `CN1CCN(c2nc(N)nc3c2oc2ccc(F)c(F)c23)CC1` [Example 145, 8,9-Difluoro-4-(4-methyl-piperazin-1-yl)-benzo[4,5]furo[3,2-d]pyrimidin-2-ylamine trifluoroacetic acid salt] reads 160 nM; that for `Nc1nc(N2CCNCC2)c2oc3ccc(F)c(F)c3c2n1` [Example 146, 8,9-Difluoro-4-piperazin-1-yl-benzo[4,5]furo[3,2-d]pyrimidin-2-ylamine trifluoroacetic acid salt], 1280 nM. Consider `Nc1nc(N2CCC[C@H](N)C2)c2oc3ccc(F)c(F)c3c2n1` [Example 147, (S)-4-(3-Amino-piperidin-1-yl)-8,9-difluoro-benzo[4,5]furo[3,2-d]pyrimidin-2-ylamine trifluoroacetic acid salt], for which the Ki is more than 10000 nM. As for `CN[C@@H]1CCN(c2nc(N)nc3c2oc2ccc(F)c(F)c23)C1` [Example 148, (R)-8,9-Difluoro-4-(3-methylamino-pyrrolidin-1-yl)-benzo[4,5]furo[3,2-d]pyrimidin-2-ylamine trifluoroacetic acid salt], the inhibition constant Ki is 39 nM.

For the molecule `Nc1nc(N2C[C@@H]3C[C@H]2CN3)c2oc3ccc(F)c(F)c3c2n1` [Example 149, (S,S)-4-(2,5-Diaza-bicyclo[2.2.1]hept-2-yl)-8,9-difluoro-benzo[4,5]furo[3,2-d]pyrimidin-2-ylamine trifluoroacetic acid salt], the Ki is more than 10000 nM.

In the case of `Nc1nc(N2CC(N)C2)c2oc3ccc(F)c(F)c3c2n1` [Example 150, 4-(3-Amino-azetidin-1-yl)-8,9-difluoro-benzo[4,5]furo[3,2-d]pyrimidin-2-ylamine trifluoroacetic acid salt], the Ki worked out at 5380 nM.
